Assays:
MDA-MB-361 = assay: CDI of example compounds and Lapatinib (ATPlite cell survival); assay type: cell-based; design: key: CDI = AB/(A×B); <1 synergistic; settings: compound 5 μM + Lapatinib 1 μM, 72 h; natural Lapatinib-resistant human breast cancer cells; CDI<1 synergistic
Experimental: (§1) Cells: (BT474 and SK-BR3 are Lapatinib-sensitive human breast cancer cell strains; BT/LapR and SK/LapR are secondary Lapatinib-resistant human breast cancer cell strains upon Lapatinib stimulation; MDA-MB-361 and MDA-MB-453 are natural Lapatinib-resistant human breast cancer cell strains. BT474, MDA-MB-361, SK-BR3 and MDA-MB-453 are from American Type Culture Collection (ATCC))
(§2) In a 100 mm culture dish full of adherent cells, digestion with 1 ml 0.25% pancreatin (GIBCO) was carried out at 37° C. for 5 min, and the reaction was stopped with 2 ml medium (containing 10% FBS, GIBCO). The cells were dispersed and collected. After cell count, the cells were diluted to a concentration of 1×10^5 cells/ml, and were seeded to a 96-well plate at 50 μl/well, 5000 cell/well, 60 wells in total, PBS instead of cells was added to the wells of the outmost circle, and the incubation was carried out at 37° C. for 24 h for adherence.
(§3) For the sample group, samples to be tested were diluted with DMSO to a final concentration of 5 μM; to control wells, the medium containing the same concentration of solvent corresponding to the compound was added, the concentrations of the compounds were identical in each well, 5 wells in parallel were set for each concentration, 25 μL/well, and 25 μL medium was added to each well (for the combination group, 25 μL Lapatinib was added to reach a final concentration of 1 μM). The incubation was carried out at 37° C. for 72 h.
(§4) To each well, 50 μL ATPlite kit substrate solution was added. The plate was under shaking for 3 min, and was then placed in dark for 10 min. The lysis supernatant was drawn at 100 μL/well, and placed in a luminescent plate. The incubated luminescent plate was placed in an iluminescence apparatus, and the iluminescent value was read.
(§5) Data Processing Cell survival rate (%)=Experimental group RLU/control group RLU×100%
(§6) Coefficient of drug interaction (CDI) is used to evaluate the interaction of two drugs, CDI is calculated in accordance with the following formula: CDI=AB/(A×B)×100%. The calculation is performed according to the number of live cells (luminescent value), if CDI<1, the two drugs have a synergistic effect; if CDI<0.7, the synergistic effect is very significant; if CDI=1, the effect of the two drugs in combination is the sum of the effects of the two drugs; if CDI>1, the two drugs have an antagonistic effect.

SK-BR3 = assay: as above; assay type: cell-based; design: key: CDI = AB/(A×B); <1 synergistic; settings: compound 5 μM + Lapatinib 1 μM, 72 h; Lapatinib-sensitive human breast cancer cells; CDI<1 synergistic
Experimental: as §1, §2, §3, §4, §5, §6

MDA-MB-453 = assay: as above; assay type: cell-based; design: key: CDI = AB/(A×B); <1 synergistic; settings: compound 5 μM + Lapatinib 1 μM, 72 h; natural Lapatinib-resistant human breast cancer cells; CDI<1 synergistic
Experimental: as §1, §2, §3, §4, §5, §6

BT474 = assay: as above; assay type: cell-based; design: key: CDI = AB/(A×B); <1 synergistic; settings: compound 5 μM + Lapatinib 1 μM, 72 h; Lapatinib-sensitive human breast cancer cells; CDI<1 synergistic, <0.7 very significant, >1 antagonistic
Experimental: as §1, §2, §3, §4, §5, §6

SK/Lap^R1.0 = assay: as above; assay type: cell-based; settings: compound 5 μM + Lapatinib 1 μM, 72 h; secondary Lapatinib-resistant human breast cancer cells; CDI<1 synergistic
Experimental: as §1, §2, §3, §4, §5, §6

BT/Lap^R1.0 = assay: as above; assay type: cell-based; settings: compound 5 μM + Lapatinib 1 μM, 72 h; secondary Lapatinib-resistant human breast cancer cells; CDI<1 synergistic
Experimental: as §1, §2, §3, §4, §5, §6

Hsp70 ATPase = molecular target: T1, Hsp70 ATPase (Homo sapiens, UniProt P0DMV8); assay: Inhibition of Hsp70 ATPase activity (malachite green); assay type: biochemical; settings: 200 μM; repeated screening carried out twice; Hsp70/Hsp40, 1 mM ATP; read-out: Inhibitory rate (%) on activity of Hsp70 ATPase
T1 construct: made in house; host or cells: E. coli
T1 sequence (P0DMV8 2-641 limits assumed): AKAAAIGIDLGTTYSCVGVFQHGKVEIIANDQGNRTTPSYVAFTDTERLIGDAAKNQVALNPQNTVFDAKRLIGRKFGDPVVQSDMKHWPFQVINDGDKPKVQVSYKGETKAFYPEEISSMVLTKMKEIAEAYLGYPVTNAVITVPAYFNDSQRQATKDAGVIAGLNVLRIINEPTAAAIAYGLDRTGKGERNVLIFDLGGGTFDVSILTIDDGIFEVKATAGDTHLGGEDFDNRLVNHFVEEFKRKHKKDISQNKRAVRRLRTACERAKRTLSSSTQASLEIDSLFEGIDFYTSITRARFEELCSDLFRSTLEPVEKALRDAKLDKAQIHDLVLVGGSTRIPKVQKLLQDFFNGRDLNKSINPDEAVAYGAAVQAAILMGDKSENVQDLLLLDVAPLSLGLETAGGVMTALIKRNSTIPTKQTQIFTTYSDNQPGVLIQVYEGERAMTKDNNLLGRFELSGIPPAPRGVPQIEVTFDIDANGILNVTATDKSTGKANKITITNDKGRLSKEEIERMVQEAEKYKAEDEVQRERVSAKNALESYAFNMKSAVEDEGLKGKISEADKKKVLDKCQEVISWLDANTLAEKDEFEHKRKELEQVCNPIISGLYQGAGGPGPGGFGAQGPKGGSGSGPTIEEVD
Experimental: (1) Protein: Humanized Hsp70, Hsp40, expressed by E. coli.
(2) Sample to be tested: 26 compound solids with different colors and states. Positive drugs AZ (CAS:1054543-47-3) and VER 155008 (CAS: 1134156-31-2) were synthesized in the laboratory.
(4) ATPase Assay buffer: • 0.017% Triton X-100; • 100 mM Tris-HCl; • 20 mM KCl; • 6 mM MgCl2, pH 7.4.
1) 13.08 μl DnaK (0.15 mg/mL, 2.14 μM), 1.96 μl DnaJ (1 mg/mL, 25 μM) were dissolved in 7.96 μl Assay Buffer (0.017% Triton X-100, 100 mM Tris-HCl, 20 mM KCl, and 6 mM MgCl2, pH 7.4), and the resultant solution was added to each well of the 96 well plate;
2) to each well of the 96 well plate, 1 μL sample to be tested (5 mM) or DMSO (solvent) was added, and vortexed with a Vortex agitator for 10 min; and then standing at 37° C. for 30 min;
3) to each well, 1 μL 25 mM ATP was added, to trigger the enzymatic reaction; (in each well, the final reaction volume was 25 μL, the final concentration of DnaK was 1.12 μM, the final concentration of DnaJ was 1.96 μM, the final concentration of DMSO was 4%, the final concentration of Triton X-100 was 0.01%, the final concentration of ATP was 1 mM, and the final concentration of sample to be tested was 200 μM), the enzymatic reaction was carried out at 37° C. for 3 h;
4) 80 μL Malachite green staining solution was then added to each well, and was vortexed gently;
5) 10 μL of 34% citrate sodium was then added immediately, and vortexed gently, to stop the ATP hydrolysis not caused by ATPase;
6) the resultant mixture was mixed thoroughly at 37° C. for 15 min, and OD620 was measured.
The inhibitory rate of Hsp70 ATPase activity is calculated in accordance with the following formula: Inhibitory rate (%)=(DMSO well OD−Experimental well OD)/(DMSO well OD−Blank well OD)×100
Criteria for preliminary screening: during preliminary screening, an example compound is regarded as effective in inhibition as long as its inhibitory rate is above 20% for Hsp70 ATPase at 200 μM.

inhibition at 200 µM (Hsp70 ATPase) | SMILES | CDI of example compounds and Lapatinib, MDA-MB-361 (MDA-MB-361) | CDI of example compounds and Lapatinib, SK-BR3 (SK-BR3) | CDI of example compounds and Lapatinib, MDA-MB-453 (MDA-MB-453) | CDI of example compounds and Lapatinib, BT474 (BT474) | CDI of example compounds and Lapatinib, SK/Lap^R1.0 (SK/Lap^R1.0) | CDI of example compounds and Lapatinib, BT/Lap^R1.0 (BT/Lap^R1.0)
-6.13% | COc1cc(/C=C/C(=O)NC(NC(=S)Nc2ccccn2)C(C)C)cc(OC)c1OC (centres unmarked) [Example 35, (2E)-N-[2-methyl-1-(3-pyridin-2-ylthioureido)propyl]-3-(3,4,5-trimethoxyphenyl) acrylamide] | 0.86 | 0.99 | 1.37 | 0.96 | 0.9 | 1.04
28.8% | COc1ccc(NC(=S)NC(NC(=O)/C=C/c2cc(OC)c(OC)c(OC)c2)C(C)C)cc1 (centres unmarked) [Example 50, (2E)-N-{1-[3-(4-methoxyphenyl)thioureido]-2-methylpropyl}-3-(3,4,5-trimethoxyphenyl) acrylamide] | 0.97 | 1.06 | 1.4 | 1.02 | 0.96 | 1.02
50.5% | COc1cc(/C=C/C(=O)NC(NC(=S)Nc2ccccc2C)C(C)(C)C)cc(OC)c1OC (centres unmarked) [Example 44, (2E)-N-[2,2-dimethyl-1-(3-o-methylphenylthioureido)propyl]-3-(3,4,5-trimethoxyphenyl)acrylamide] | 0.93 | 0.96 | 1.12 | 0.94 | 0.98 | 0.93

Continued, compound first:

SMILES | inhibition at 200 µM (Hsp70 ATPase) | CDI of example compounds and Lapatinib, MDA-MB-361 (MDA-MB-361) | CDI of example compounds and Lapatinib, SK-BR3 (SK-BR3) | CDI of example compounds and Lapatinib, MDA-MB-453 (MDA-MB-453) | CDI of example compounds and Lapatinib, BT474 (BT474) | CDI of example compounds and Lapatinib, SK/Lap^R1.0 (SK/Lap^R1.0) | CDI of example compounds and Lapatinib, BT/Lap^R1.0 (BT/Lap^R1.0)
COc1cc(/C=C/C(=O)NC(NC(=S)Nc2ccccc2)C(C)C)cc(OC)c1OC (centres unmarked) [Example 36, (2E)-N-[2-methyl-1-(3-phenylthioureido)propyl]-3-(3,4,5-trimethoxyphenyl) acrylamide] |  | 0.98 | 1.07 | 1.3 | 0.97 | 0.94 | 0.96
CC(C)CC(NC(=O)/C=C/c1ccccc1)NC(=S)NC1CCCCC1 (centres unmarked) [Example 54, N-[1-(3-cyclohexylthioureido)-3-methylbutyl] cinnamamide] | 58.4% | 0.9 | 1.16 | 1.2 | 0.77 | 1.14 | 0.98
CC(C)C(NC(=O)/C=C/c1ccccc1)NC(=S)Nc1ccccc1 (centres unmarked) [Example 42, (2E)-N-[2-methyl-1-(3-phenylthioureido)propyl] cinnamamide] | -4.2% | 0.96 | 1.14 | 1.15 | 0.92 | 0.99 | 0.99

Source: patent publication US9718770B2, “Substituted thioureas as heat shock protein 70 inhibitors” (Institute of Pharmacology and Toxicology Academy of …, priority 2013, dated 2017)
